Several values for one entry are separate records, joined by “and”; a condition that tells them apart may be missing. Equal values may be shown once. Read-outs that look alike come from different tables or passages of the source.
Assay: Healthy Japanese subjects, Part 2 (100, 200, 300 mg BID up-titration): PK of TAK-935 and M-I
Format: in vivo, human
Conditions: for AUlast/D (dose-normalized): mean (% CV); for Cmax: read-out: Cmax; for Vd/F: read-out: Vz/F
Procedure: This study consisted of 2 parts, and was a randomized, double-blind, placebo-controlled study to assess safety, tolerability, and PK and PD of TAK-935 when administered orally in healthy Japanese subjects.
TAK-935 or placebo was administered to the 9 subjects at the dose of 100 mg BID from Day 1 to Day 7, then 200 mg BID from Day 8 to Day 14, and finally 300 mg BID from Day 15 to Day 21, and safety, PK and PD were investigated. The planned dose levels of TAK-935 to be evaluated are outlined in Table 40a.
After the screening visit, eligible participants checked—in on Day-2. On Day 1, eligible participants were randomized 6:3 to TAK-935 or placebo in double-blinded fashion. No stratification variables were used for randomization. Study drug was administered every day by oral administration of multiple dosing with up-titration of TAK-935 to 9 subjects firstly at 100 mg BID from Day 1 to Day 7, then at 200 mg BID from Day 8 to Day 14, and finally at 300 mg BID from Day 15 to Day 21, successively. The subjects were discharged on Day 24. Intensive PK samplings were performed on Day 1, Day 7, Day 14 and Day 21.
Subjects received multiple oral doses of TAK-935 or placebo escalating from 100 mg BID, 200 mg BID, and then to 300 mg BID with 150 mL of water for 7 days per each dose level. For the morning dose, subjects were kept fasted for at least 8 hours before administration and up to 2 hours after administration. The evening dose was administered at any time between 8 hours and 12 hours after the morning dose, but prior to the evening meal except for Days 1, 7, 14, and 21. On Days 1, 7, 14, and 21, the evening dose was administered 12 hours after the morning dose and prior to the evening meal. • Identity of Study Drugs • Study drug refers to TAK-935 100 mg tablet and matching placebo. • Compound: Code name: TAK-935 • Dosage forms: TAK-935 100 mg tablets and matching placebo tablets were used in this study. The TAK-935 tablets and placebo tablets were yellow-red film-coated tablets for oral administration.
Blood samples for PK analysis of TAK-935 and its metabolites (M-I) were collected into blood collection tubes (vacutainer) containing the anticoagulant K2EDTA (Table 40e and Table 40f).
The PK parameters of TAK-935 and its metabolites (M-I) were determined from the concentration-time profiles for all evaluable subjects. Actual sampling times, rather than scheduled sampling times, were used in all computations involving sampling times. The following PK parameters were calculated from plasma concentrations of TAK-935 and its metabolites (M-I), unless otherwise specified: […]

[1] = Day 1 (100 mg BID), Part 2, Median
[2] = Day 1, TAK-935 100 mg BID, plasma, mean
[3] = Day 7 (100 mg BID), Part 2, Median
[4] = Day 7, TAK-935 100 mg BID, plasma, mean
[5] = Day 14 (200 mg BID), Part 2, Median
[6] = Day 14, TAK-935 200 mg BID, plasma, mean
[7] = Day 21 (300 mg BID), Part 2, Median
[8] = Day 21, TAK-935 300 mg BID, plasma, mean
[9] = human, plasma, oral, 100 mg, Day 1 (100 mg BID), Part 2, Median
[10] = human, plasma, oral, 100 mg, Day 1, TAK-935 100 mg BID, plasma, mean
[11] = human, plasma, oral, 100 mg, Day 7 (100 mg BID), Part 2, Median

What does the source list for `O=C(c1cccnc1-c1ccncc1)N1CCC(O)(Cc2ccccc2)CC1` [soticlestat]?
CL/F [1]: 501.5 L/H; Lambda z [1]: 0.2135 h⁻¹; T1/2z [1]: 3.275 h; CL/F [2]: 451.8 L/h; Lambda z [2]: 0.2042 h⁻¹; CL/F [3]: 443.0 L/H; Lambda z [3]: 0.2180 h⁻¹; T1/2z [3]: 3.270 h; CL/F [4]: 551.8 L/h; Lambda z [4]: 0.2325 h⁻¹; AUlast/D (dose-normalized) (Day 7, TAK-935 100 mg BID, plasma): 2.238 (49.3) h*ng/mL/mg; CL/F [5]: 254.0 L/H; Lambda z [5]: 0.2685 h⁻¹; T1/2z [5]: 2.575 h; CL/F [6]: 276.7 L/h and 276.4 L/h; Lambda z [6]: 0.2775 h⁻¹; AUlast/D (dose-normalized) (Day 14, TAK-935 200 mg BID, plasma): 4.298 (44.9) h*ng/mL/mg; CL/F [7]: 147.0 L/H; Lambda z [7]: 0.3095 h⁻¹; T1/2z [7]: 2.240 h; CL/F [8]: 158.0 L/h; Lambda z [8]: 0.2708 h⁻¹; AUlast/D (dose-normalized) (Day 21, TAK-935 300 mg BID, plasma): 6.725 (25.2) h*ng/mL/mg; Mean t1/2z (TAK-935, Day 1, 100 mg BID): 5.988 h; Mean t1/2z (TAK-935, Day 7, 100 mg BID): 3.630 h; Mean t1/2z (TAK-935, Day 14, 200 mg BID): 2.620 h; Mean t1/2z (TAK-935, Day 21, 300 mg BID): 2.927 h; accumulation of Cmax and AUC (TAK-935, multiple dose administration): < 6%; AUC (human, plasma, oral, 100 mg, Day 1 (100 mg BID), Part 2, Geo Mean, read-out: AUC1ast): 209 ng·h/mL; AUC (human, plasma, oral, 100 mg, Day 1 (100 mg BID), Part 2, Geo Mean, read-out: AUCtau): 209 ng·h/mL; Cmax (human, plasma, oral, 100 mg, Day 1 (100 mg BID), Part 2, Geo Mean): 201 ng/mL; Tmax (human, plasma, oral, 100 mg, Day 1 (100 mg BID), Part 2, Mean, read-out: Tmax): 0.875 h; AUC (human, plasma, oral, 100 mg, Day 1 (100 mg BID), Part 2, Median, read-out: AUC1ast): 160 ng·h/mL; AUC (human, plasma, oral, 100 mg, Day 1 (100 mg BID), Part 2, Median, read-out: AUCtau): 160 ng·h/mL; Cmax [9]: 146 ng/mL; Vd/F [9]: 2450 L; AUC(0-t) [10]: 232 ng·h/mL; AUC (human, plasma, oral, 100 mg, Day 1, TAK-935 100 mg BID, plasma, mean, read-out: AUCτ (AUC during a dosing interval)): 232 ng·h/mL; Cmax [10]: 255 ng/mL; Vd/F [10]: 4100 L; half-life (human, plasma, oral, 100 mg, Day 1, TAK-935 100 mg BID, plasma, mean, read-out: t1/2z (terminal disposition phase half-life) (converted)): 5.99 h; Tmax (human, plasma, oral, 100 mg, Day 1, TAK-935 100 mg BID, plasma, median, read-out: tmax): 0.75 h; AUC (human, plasma, oral, 100 mg, Day 7 (100 mg BID), Part 2, Geo Mean, read-out: AUC1ast): 201 ng·h/mL; AUC (human, plasma, oral, 100 mg, Day 7 (100 mg BID), Part 2, Geo Mean, read-out: AUCtau): 202 ng·h/mL; Cmax (human, plasma, oral, 100 mg, Day 7 (100 mg BID), Part 2, Geo Mean): 146 ng/mL; Tmax (human, plasma, oral, 100 mg, Day 7 (100 mg BID), Part 2, Mean, read-out: Tmax): 0.833 h; AUC (human, plasma, oral, 100 mg, Day 7 (100 mg BID), Part 2, Median, read-out: AUC1ast): 226 ng·h/mL; AUC (human, plasma, oral, 100 mg, Day 7 (100 mg BID), Part 2, Median, read-out: AUCtau): 226 ng·h/mL; Cmax [11]: 148 ng/mL; Vd/F [11]: 2600 L; AUC(0-t) (human, plasma, oral, 100 mg, Day 7, TAK-935 100 mg BID, plasma, mean): 224 ng·h/mL

Reference: US20250213547A1, “METHODS OF TREATING NEUROLOGICAL DISEASES” (priority 2022, published 2025)
